Source: ChEMBL document CHEMBL4725309, “Potent, non-covalent reversible BTK inhibitors with 8-amino-imidazo[1,5-a]pyrazine core featuring 3-position bicyclic ring substitutes” (Bioorg Med Chem Lett, 2020)

Legend:
[1] = target: T1, Tyrosine-protein kinase BTK (Homo sapiens, UniProt Q06187); experiment: Inhibition of BTK in human PBMC assessed as reduction in cell surface CD69 expression preincubated for 1 hr followed by stimulation with goat anti-human IgM F(ab')2 for 18 hrs by immunostaining analysis; assay type: tissue-based
[2] = target: T1, Tyrosine-protein kinase BTK; experiment: Inhibition of recombinant full length BTK (unknown origin) expressed in baculovirus infected Sf9 cells using Biotin-EQEDEPEGDYFEWLE-NH2 peptide as substrate incubated for 60 mins followed by further incubation with substrate and ATP for 120 mins by TR-FRET assay
[3] = target: T1, Tyrosine-protein kinase BTK; experiment: Inhibition of BTK in human whole blood assessed as reduction in cell surface CD69 expression preincubated for 1 hr followed by stimulation with anti-CD79b for 3 hrs by immunostaining analysis; assay type: tissue-based

T1 sequence (Q06187 whole entry): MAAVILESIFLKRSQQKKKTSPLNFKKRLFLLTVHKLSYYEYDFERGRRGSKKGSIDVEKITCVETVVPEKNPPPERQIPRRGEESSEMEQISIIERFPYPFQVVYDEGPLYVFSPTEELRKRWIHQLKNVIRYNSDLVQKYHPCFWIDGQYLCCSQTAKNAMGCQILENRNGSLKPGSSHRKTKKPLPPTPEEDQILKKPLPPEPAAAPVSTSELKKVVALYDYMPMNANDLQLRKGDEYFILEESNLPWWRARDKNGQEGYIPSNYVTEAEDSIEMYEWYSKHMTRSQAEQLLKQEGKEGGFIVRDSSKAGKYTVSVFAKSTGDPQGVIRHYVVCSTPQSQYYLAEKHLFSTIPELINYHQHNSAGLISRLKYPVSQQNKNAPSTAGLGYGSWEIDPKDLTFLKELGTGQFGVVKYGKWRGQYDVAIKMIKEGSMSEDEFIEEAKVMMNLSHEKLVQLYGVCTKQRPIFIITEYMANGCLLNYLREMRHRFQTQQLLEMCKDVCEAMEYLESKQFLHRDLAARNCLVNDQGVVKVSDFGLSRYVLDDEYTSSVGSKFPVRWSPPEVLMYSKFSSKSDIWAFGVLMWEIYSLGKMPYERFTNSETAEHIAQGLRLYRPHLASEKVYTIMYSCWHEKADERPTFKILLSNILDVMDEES

Row | Compound | IC50 [1] [µM] | IC50 [2] [µM] | IC50 [3] [µM]
1 | CC(C)Oc1cc(C(=O)Nc2cc(C(F)(F)F)ccn2)ccc1-c1nc([C@@H]2CC[C@H]3CCC(=O)N3C2)n2ccnc(N)c12 | 0.041 |  | 
2 | Nc1nccn2c([C@@H]3CC[C@H]4CCC(=O)N4C3)nc(-c3ccc(C(=O)Nc4cc(C(F)(F)F)ccn4)cc3C(F)(F)F)c12 | > 3 | > 1 | 
3 | Nc1nccn2c([C@@H]3CC[C@H]4CCC(=O)N4C3)nc(-c3ccc(C(=O)Nc4cc(C(F)(F)F)ccn4)cc3Oc3ccccc3)c12 | 0.31 | 0.011 | 
4 | C[C@H]1OC(=O)N2C[C@H](c3nc(-c4ccc(C(=O)Nc5cc(C(F)(F)F)ccn5)cc4)c4c(N)nccn34)CC[C@@H]12 | 0.0032 |  | 0.063
5 | C[C@@H]1OC(=O)N2C[C@H](c3nc(-c4ccc(C(=O)Nc5cc(C(F)(F)F)ccn5)cc4)c4c(N)nccn34)CC[C@@H]12 | 0.0049 | 0.00013 | 0.086
6 | Nc1nccn2c([C@@H]3CC[C@H]4CCC(=O)N4C3)nc(-c3ccc(C(=O)Nc4cc(C(F)(F)F)ccn4)cc3OC(F)(F)F)c12 | 0.074 | 0.01 | 
7 | CN1C[C@@H]2CC[C@@H](c3nc(-c4ccc(C(=O)Nc5cc(C(F)(F)F)ccn5)cc4)c4c(N)nccn34)CN2C1=O | 0.403 |  | 
8 | Nc1nccn2c([C@@H]3CC[C@H]4COCC(=O)N4C3)nc(-c3ccc(C(=O)Nc4cc(C(F)(F)F)ccn4)cc3F)c12 | 0.0058 | 0.0001 | 0.078
9 | Nc1nccn2c([C@@H]3CC[C@H]4CCCN4C3)nc(-c3ccc(C(=O)Nc4cc(C(F)(F)F)ccn4)cc3)c12 | 0.039 |  | 0.204
10 | CN1CC(=O)N2C[C@H](c3nc(-c4ccc(C(=O)Nc5cc(C(F)(F)F)ccn5)cc4F)c4c(N)nccn34)CC[C@H]2C1 | 0.016 | 0.00026 | 0.104
11 | Nc1nccn2c([C@@H]3CC[C@H]4CCC(=O)N4C3)nc(-c3ccc(C(=O)Nc4cc(C(F)(F)F)ccn4)cc3O)c12 | 0.011 |  | 
12 | N#Cc1cc(C(=O)Nc2cc(C(F)(F)F)ccn2)ccc1-c1nc([C@@H]2CC[C@H]3CCC(=O)N3C2)n2ccnc(N)c12 | 0.267 |  | 
